{
  "source": "patent US4599357A",
  "about": "“1-mercaptoalkanoylindoline-2-carboxylic acids” (Ciba-Geigy Corporation, priority 1980, dated 1986)",
  "tested_on": "angiotensin I converting enzyme",
  "test": "inhibition of the angiotensin I pressor response in anesthetized normotensive rats",
  "type": "in vivo",
  "description": "The enzyme renin, normally causes specific hydrolysis of the circulating protein renin-substrate. This hydrolysis generates angiotensin I, which is further hydrolyzed by the action of said converting enzyme to the potent vasoconstrictor angiotensin II. The inhibition of said enzyme prevents the generation of angiotensin II from I and, therefore, attenuates any pressure response following an angiotensin I challenge.\nThe corresponding in vivo test is performed with male, normotensive rats, which are anesthetized with 100-120 mg/kg i.p. of sodium ethyl-(1-methylpropyl)malonylthiourea. A femoral artery and saphenous vein are cannulated for direct blood pressure measurement and i.v. administration of angiotensin I and compounds of this invention. After the basal blood pressure is stabilized, pressor responses to 3 challenges of 0.33 μg/kg of angiotensin I i.v., in 5 minute intervals, are obtained. Such pressure responses are again obtained 5, 10, 15, 30 and 60 minutes after either i.v., or p.o. administration (stomach tube) of the compounds to be tested, and compared with the initial responses. Any observed decrease of said pressor response is an indication of angiotensin I converting enzyme inhibition, ranging up to 80% after 10 mg/kg i.v., or 50 mg/kg p.o. doses, which decrease may be sustained up to 60 minutes.",
  "data": [
    {"smiles": "C[C@H](CS)C(=O)N1c2ccccc2C[C@H]1C(=O)O", "note": "[1-(3-mercapto-2S-methylpropanoyl)-indoline-2S-carboxylic acid]", "values": [
      {"measurement": "inhibitory effect against the angiotensin I pressure response", "result": "inhibitory effect"}
    ]}
  ]
}
